Where two headings read alike, the source gives them in different places.
Assays:
[1] = tested on: Sodium channels in mouse neuroblastoma N1E-115 cells; assay: Sodium current fast and slow inactivation in neuroblastoma cells (holding potential/prepulse protocols); type: cell-based; settings: for current when the holding potential was −60 mV: 10 ms test pulse to 0 mV; for fraction available after 500 ms hyperpolarizing pulse to −100 mV, compared to control values: holding potential −60 mV; for % of channels in the slow inactivated state: held at −80 mV, 10 s to −10 mV, 1.5 s recovery, VEH 27%
[2] = tested on: 129SVEV mice; assay: Stress-induced hyperthermia (SIH) test, animal model for stress-induced anxiety; type: in vivo, mouse
Experimental: The room temperature was maintained between 20 and 23° C. with a relative humidity maintained between 30% and 70%.
On the day prior to testing, the mice were brought to the experimental room one hour before scheduled lights out and singly housed overnight with food and water ad libitum. […] The probe remained inside the animal for approximately 5 seconds or until body temperature reached stability. This temperature was recorded as the baseline rectal temperature (T1). […] Before each insertion, the rectal probe was cleaned with an alcohol pad and lubricated with sterile K-Y jelly.

[3] = tested on: rat hippocampal slice cultures; type: cell-based; settings: for reduction of overall damage: LDH release 24 h after Glut
[4] = tested on: rat hippocampal slice cultures; type: cell-based
[5] = tested on: sodium channels in rat cortical neurons, NIE-115 cells and Xenopus oocytes; assay: Effects upon firing, synaptic transmission and sodium channels in rat cortical neurons, NIE-115 cells and Xenopus oocytes; type: cell-based
[6] = tested on: voltage-gated Na+ channels; settings: cited from earlier work
[7] = target: T1, rat type II sodium channel alpha subunit (Nav1.2) (Rattus norvegicus, UniProt P04775); assay: Sodium currents in Xenopus oocytes expressing sodium channel alpha subunits; type: cell-based
T1 construct: expressed in transfected cells; host or cells: Xenopus oocytes
T1 sequence (P04775 whole entry): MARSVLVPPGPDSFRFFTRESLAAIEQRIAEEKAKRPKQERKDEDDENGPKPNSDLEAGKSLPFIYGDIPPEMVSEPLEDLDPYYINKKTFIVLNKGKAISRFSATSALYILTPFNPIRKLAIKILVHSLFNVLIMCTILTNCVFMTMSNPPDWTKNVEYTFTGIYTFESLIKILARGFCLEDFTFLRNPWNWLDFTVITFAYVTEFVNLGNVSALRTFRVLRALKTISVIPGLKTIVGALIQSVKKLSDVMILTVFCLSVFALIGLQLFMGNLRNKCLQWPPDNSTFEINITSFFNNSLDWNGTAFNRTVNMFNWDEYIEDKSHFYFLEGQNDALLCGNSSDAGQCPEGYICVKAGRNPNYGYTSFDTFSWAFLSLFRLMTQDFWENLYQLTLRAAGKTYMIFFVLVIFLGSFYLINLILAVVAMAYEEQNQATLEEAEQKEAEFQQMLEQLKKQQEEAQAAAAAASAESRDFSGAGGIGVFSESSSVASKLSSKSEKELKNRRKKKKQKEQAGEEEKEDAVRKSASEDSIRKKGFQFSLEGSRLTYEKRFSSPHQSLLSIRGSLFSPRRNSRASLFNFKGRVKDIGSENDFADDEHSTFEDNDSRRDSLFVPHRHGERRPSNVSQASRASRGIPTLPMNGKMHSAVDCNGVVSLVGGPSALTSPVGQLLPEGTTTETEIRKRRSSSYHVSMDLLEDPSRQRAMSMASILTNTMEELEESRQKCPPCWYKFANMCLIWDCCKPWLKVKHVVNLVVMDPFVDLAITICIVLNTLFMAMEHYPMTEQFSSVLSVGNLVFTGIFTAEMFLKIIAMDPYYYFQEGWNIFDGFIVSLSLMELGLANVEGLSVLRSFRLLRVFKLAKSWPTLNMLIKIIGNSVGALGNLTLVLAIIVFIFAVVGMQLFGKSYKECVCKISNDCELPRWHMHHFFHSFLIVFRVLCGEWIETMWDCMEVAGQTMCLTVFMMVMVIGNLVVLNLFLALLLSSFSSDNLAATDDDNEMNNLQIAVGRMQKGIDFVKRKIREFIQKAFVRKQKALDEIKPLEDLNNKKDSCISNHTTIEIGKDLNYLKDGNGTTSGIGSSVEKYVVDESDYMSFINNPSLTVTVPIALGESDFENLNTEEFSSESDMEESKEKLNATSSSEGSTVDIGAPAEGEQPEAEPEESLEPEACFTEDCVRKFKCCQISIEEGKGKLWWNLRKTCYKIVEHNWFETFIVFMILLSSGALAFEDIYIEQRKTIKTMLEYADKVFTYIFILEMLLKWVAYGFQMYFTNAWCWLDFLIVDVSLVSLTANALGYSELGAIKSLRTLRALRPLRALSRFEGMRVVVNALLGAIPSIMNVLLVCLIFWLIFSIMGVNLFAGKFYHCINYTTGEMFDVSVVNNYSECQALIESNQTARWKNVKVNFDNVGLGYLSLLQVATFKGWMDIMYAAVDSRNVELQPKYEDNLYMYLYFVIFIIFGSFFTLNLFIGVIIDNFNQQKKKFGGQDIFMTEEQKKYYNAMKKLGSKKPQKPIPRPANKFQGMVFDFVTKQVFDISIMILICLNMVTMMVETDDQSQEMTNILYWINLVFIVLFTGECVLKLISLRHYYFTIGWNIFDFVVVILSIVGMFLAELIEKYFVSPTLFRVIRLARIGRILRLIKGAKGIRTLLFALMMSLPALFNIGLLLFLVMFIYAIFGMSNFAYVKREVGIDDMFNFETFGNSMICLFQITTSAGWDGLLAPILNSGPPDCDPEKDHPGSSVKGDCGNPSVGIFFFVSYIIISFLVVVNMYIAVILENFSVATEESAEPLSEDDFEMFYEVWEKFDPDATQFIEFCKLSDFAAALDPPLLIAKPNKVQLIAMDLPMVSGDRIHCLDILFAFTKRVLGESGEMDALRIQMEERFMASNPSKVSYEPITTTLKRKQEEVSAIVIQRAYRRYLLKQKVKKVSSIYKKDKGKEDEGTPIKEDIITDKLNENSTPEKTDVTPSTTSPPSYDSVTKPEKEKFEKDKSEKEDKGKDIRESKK

[8] = tested on: sodium channels; type: cell-based; settings: 100 μM
[9] = tested on: TTX-resistant sodium currents in rat dorsal root ganglia; assay: Slow inactivation of TTX-resistant sodium current in dorsal root ganglia; type: cell-based; settings: 100 μM
[10] = 10 μM, 15 mM glutamate for 24 h

NC(=O)N1c2ccccc2C=Cc2ccccc21 [carbamazepine, reference compound]
current when the holding potential was −60 mV ([1]; 100 μM): reduction in current | fraction available after 500 ms hyperpolarizing pulse to −100 mV, compared to control values ([1]; 100 μM): 0.94±0.19

O=C1NC(=O)C(c2ccccc2)(c2ccccc2)N1 [phenytoin, reference compound]
current when the holding potential was −60 mV ([1]; 100 μM): reduction in current | fraction available after 500 ms hyperpolarizing pulse to −100 mV, compared to control values ([1]; 100 μM): 0.99±0.05

CC(C)C[C@H](CN)CC(=O)O [pregabalin, reference compound]
effect on SIH compared to saline ([2]; mouse, in vivo, ip): No significant effects

NC1=N[C@H](O)[C@H]2[C@H]3O[C@]4(O)O[C@@H]([C@@H](O)[C@@]2(N1)[C@@H]4O)[C@]3(O)CO [Tetrodotoxin]
overall damage (LDH release) 24 h after Glut [3]: protective effect | reduction of general damage [3]: 20-40% | neuronal damage (PI uptake, CA1-CA3) 24 h after Glut [4]: neuroprotective effect | reduction of neuronal damage [4]: ~50%

C[C@]12N[C@H](Cc3ccccc31)c1ccccc12 [MK-801]
overall damage (LDH release) 24 h after Glut [3, 10]: significant protection | reduction of overall damage ([3]; 10 μM): ~50% | neuronal damage (PI uptake, CA1-CA3) 24 h after Glut [4, 10]: significant protection | reduction of neuronal damage ([4]; 10 μM, PI uptake 24 h after Glut): ~80%

Nc1nnc(-c2cccc(Cl)c2Cl)c(N)n1 [lamotrigine, reference compound]
current when the holding potential was −60 mV ([1]; 100 μM): reduction in current | fraction available after 500 ms hyperpolarizing pulse to −100 mV, compared to control values ([1]; 100 μM): 0.88±0.06

COC[C@@H](NC(C)=O)C(=O)NCc1ccccc1 [lacosamide, (R)-2-acetamido-N-benzyl-3-methoxy-propionamide]
reduction of overall damage ([3]; 1, 10 and 100 μM): 30-40% | frequency of miniature excitatory post-synaptic potentials [5]: not reduced | prolonged sustained repetitive firing on action potentials [5]: inhibits | rate of sodium channel fast inactivation [5]: does not change | resting conductances [5]: no effect | slow prolonged bursting in cortical neurons [5]: inhibits | steady state fast inactivation voltage curves [5]: does not shift | sustained repetitive firing [5]: did not block | synaptic transmission under normal physiologic conditions [5]: did not modulate | action potential firing evoked by brief depolarising steps or ramps ([5]; initial studies): very limited effect | rate of synaptic traffic in cultured neurons ([5]; stereoselective and concentration dependent): attenuates | fast inactivation gating of voltage-gated Na+ channels [6]: does not exert its effects on neuronal excitability by affecting fast inactivation gating | reduction of Glut-induced necrosis (neuronal damage) [4]: 40-50% | slow inactivation voltage curve ([7]; 100 μM, Xenopus oocytes, Nav1.2): pronounced shift | inhibition of sodium currents ([7]; oocyte expression system): rapid and profoundly voltage dependent inhibition | effect on SIH compared to saline ([2]; 3 mg/kg i.p. 60 min prior to testing): significantly attenuated | effect on SIH compared to saline ([2]; 10 mg/kg i.p. 60 min prior to testing): significantly attenuated | effect on SIH compared to saline ([2]; 30 mg/kg i.p. 60 min prior to testing): No significant effects | fraction of sodium channels slowly inactivated by a 10 s depolarizing pulse [8]: significantly increased | half-life for channel recovery ([8]; after 10 s depolarizing pulse): not significantly changed | V50 for slow inactivation ([1]; 32 μM and 100 μM): shift of the V50 for slow inactivation to more negative potentials | % of channels in the slow inactivated state ([1]; 32 μM): 37% | conditioning potential of first significant change in channel availability ([1]; 100 μM): −80 mV | reduction of sodium channel availability that resulted from entry into the slow inactivated state ([1]; 100 μM): more than doubled | current when the holding potential was −60 mV ([1]; 100 μM): reduction in current | inhibition after hyperpolarizing prepulse (removal of fast inactivation) ([1]; 100 μM, 500 ms pulse to −100 mV): not altered | % of channels in the slow inactivated state ([1]; 100 μM): 50% | % of channels in the slow inactivated state ([1]; 320 μM): 62% | slow inactivation voltage curves ([1]; concentration dependent): shifted the slow inactivation voltage curves to more hyperpolarized membrane potentials | maximal fraction of current made unavailable by depolarisation ([1]; conditioning potential −10 mV, CONTROL 0.70±0.02): 0.41±0.04 | time constant for entry into slow inactivation ([1]; in the presence of the drug, physiological 12.0 s): 4.8 s | slow inactivation of TTX-resistant sodium currents [9]: markedly increased

Reference: US9308183B2, “Therapy for hyperexcitability disorders” (UCB PHARMA GMBH, priority 2006, dated 2016)
